# Data from patent US20250034135A1, “ANTI-APOPTOTIC PROTEIN BCL-2 INHIBITOR, PHARMACEUTICAL COMPOSITION AND USES THEREOF” (HANGZHOU HEALZEN THERAPEUTICS CO., LTD., priority 2021, published 2025).
# Target: BCL2 (Homo sapiens (Human), UniProt P10415)
# Test: Molecular level activity test of anti-apoptotic protein BCL2 (HTRF, binding to Bim peptide)
# Details: HTRF, binding of BCL2 to Bim peptide; read-out: BCL2 nM (inhibitory activity, IC50)
# Summary of the method: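 Compound (2% DMSO) was mixed with His-tagged recombinant BCL2 and biotinylated Bim peptide for 1 h. Detection used anti-His antibody plus streptavidin-XL665 for 4 h at room temperature, read by time-resolved fluorescence.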
# Chain of BCL2 (P10415 whole entry): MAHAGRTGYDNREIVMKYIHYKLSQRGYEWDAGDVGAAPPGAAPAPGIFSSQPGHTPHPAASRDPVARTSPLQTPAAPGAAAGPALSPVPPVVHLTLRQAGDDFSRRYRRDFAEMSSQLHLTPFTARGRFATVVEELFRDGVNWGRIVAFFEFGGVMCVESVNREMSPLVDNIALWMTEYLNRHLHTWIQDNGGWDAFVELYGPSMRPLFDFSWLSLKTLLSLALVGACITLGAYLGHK
row,IC50 [nM],Compound
1,< 10,"COc1ccc(CN2CCN(C3CC4(CCN(c5cc(Oc6cnc7[nH]ccc7c6)c(C(=O)NS(=O)(=O)c6ccc(NCC7(F)CCOCC7)c([N+](=O)[O-])c6)cc5F)CC4)C3)[C@H](c3ccccc3C(C)C)C2)c2c1OCCO2 [compound 206, (R)-2-((1H-pyrrolo[2,3-b]pyrid-5-yl)oxy)-5-fluoro-N-((4-(((4-fluorotetrahydro-2H-pyran-4-yl)methyl)amino)-3-nitrophenyl)sulfonyl)-4-(2-(2-(2-isopropylphenyl)-4-(8-methoxy-2,3-dihydrobenzo[b][1,4-dioxan-5-yl)methyl)piperazin-1-yl)-7-azaspiro[3.5]non-7-yl)benzamide]"
2,< 10,"COc1ccc(CN2CCN(C3CC4(C3)CN(c3cc(Oc5cnc6[nH]ccc6c5)c(C(=O)NS(=O)(=O)c5ccc(NC[C@H]6CC[C@](C)(O)CC6)c([N+](=O)[O-])c5)cc3F)C4)C(c3ccccc3C(C)C)C2)cc1 (some centres unmarked) [compound 056, 2-((1H-pyrrolo[2,3-b]pyrid-5-yl)oxy)-5-fluoro-N-((4-((((1r,4r)-4-hydroxy-4-methylcyclohexyl)methyl)amino)-3-nitrophenyl)sulfonyl)-4-(6-(2-(2-isopropylphenyl)-4-(4-methoxybenzyl)piperazin-1-yl)-2-azaspiro[3.3]hept-2-yl)benzamide]"
3,< 10,"CC(C)c1ccccc1[C@@H]1CN(Cc2ccc(N(C)C)cc2)CCN1C1CC2(CCN(c3cc(Oc4cnc5[nH]ccc5c4)c(C(=O)NS(=O)(=O)c4ccc(NCC5(F)CCOCC5)c([N+](=O)[O-])c4)cc3F)CC2)C1 [compound 198, (R)-2-((1H-pyrrolo[2,3-b]pyrid-5-yl)oxy)-4-(2-(4-(4-(dimethylamino)benzyl)-2-(2-isopropylphenyl)piperazin-1-yl)-7-azaspiro[3.5]non-7-yl)-5-fluoro-N-((4-(((4-fluorotetrahydro-2H-pyran-4-yl)methyl)amino)-3-nitrophenyl)sulfonyl)benzamide]"
4,< 10,"CC(C)c1ccccc1[C@@H]1CCCN1C1CC2(CCN(c3cc(Oc4cnc5[nH]cc(F)c5c4)c(C(=O)NS(=O)(=O)c4cc([N+](=O)[O-])c(NC[C@H]5CC[C@](C)(O)CC5)c5[nH]cnc45)cn3)CC2)C1 [compound 037, 4-((3-fluoro-1H-pyrrolo[2,3-b]pyrid-5-yl)oxy)-N-((7-((((1r,4r)-4-hydroxy-4-methylcyclohexyl)methyl)amino)-6-nitro-1H-benzo[d]imidazol-4-yl)sulfonyl)-6-(2-((S)-2-(2-isopropylphenyl)pyrrolidin-1-yl)-7-azaspiro[3.5]non-7-yl) nicotinamide]"
5,< 10,"COc1ccc(CN2CCN(C3CC4(CCN(c5ccc(C(=O)NS(=O)(=O)c6cc([N+](=O)[O-])c(NC[C@H]7CC[C@](C)(O)CC7)c7c6OC(F)(F)O7)c(Oc6cnc7[nH]ccc7c6)c5)CC4)C3)[C@H](c3ccccc3C(C)C)C2)cc1 [compound 165, 2-((1H-pyrrolo[2,3-b]pyrid-5-yl)oxy)-N-((2,2-difluoro-7-((((1r, 4r)-4-hydroxy-4-methylcyclohexyl)methyl)amino)-6-nitrobenzo[d][1,3]dioxocyclopent-4-yl)sulfonyl)-4-(2-((R)-2-(2-isopropylphenyl)-4-(4-methoxybenzyl)piperazin-1-yl)-7-azaspiro[3.5]non-7-yl)benzamide]"
6,< 10,"COc1ccc(CN2CCN(C3CC4(CCN(c5cc(Oc6cnc7[nH]ccc7c6)c(C(=O)NS(=O)(=O)c6cc([N+](=O)[O-])c(NCC7(F)CCOCC7)c7c6CCO7)cc5F)CC4)C3)[C@H](c3ccccc3C(C)C)C2)cc1 [compound 112, (R)-2-((1H-pyrrolo[2,3-b]pyrid-5-yl)oxy)-5-fluoro-N-((7-(((4-fluorotetrahydro-2H-pyran-4-yl)methyl)amino)-6-nitro-2,3-dihydrobenzofuran-4-yl)sulfonyl)-4-(2-(2-(2-isopropylphenyl)-4-(4-methoxybenzyl)piperazin-1-yl)-7-azaspiro[3.5]non-7-yl)benzamide]"
7,< 10,"(S)-2-((1H-pyrrolo[2,3-b]pyrid-5-yl)oxy)-N-((7-(((4-fluoro-1-(oxocyclobut-3-yl)piperid-4-yl)methyl)amino)-6-nitro-1H-benzo[d]imidazol-4-yl)sulfonyl)-4-(2-(2-(2-isopropylphenyl)pyrrolidin-1-yl)-7-azaspiro[3.5]non-7-yl)benzamide [compound 003]"
8,< 10,"CC(C)c1ccccc1[C@@H]1CN(Cc2ccncc2)CCN1C1CC2(CCN(c3cc(Oc4cnc5[nH]ccc5c4)c(C(=O)NS(=O)(=O)c4ccc(NCC5(F)CCOCC5)c([N+](=O)[O-])c4)cc3F)CC2)C1 [compound 211, (R)-2-((1H-pyrrolo[2,3-b]pyrid-5-yl)oxy)-5-fluoro-N-((4-(((4-fluorotetrahydro-2H-pyran-4-yl)methyl)amino)-3-nitrophenyl)sulfonyl)-4-(2-(2-(2-isopropylphenyl)-4-(pyrid-4-ylmethyl)piperazin-1-yl)-7-azaspiro[3.5]non-7-yl)benzamide]"
9,< 10,"CC(C)c1ccccc1[C@@H]1CCCN1C1CC2(CCN(c3cc(Oc4cnc5[nH]ccc5c4)c(C(=O)NS(=O)(=O)c4cc([N+](=O)[O-])c(NCC5(F)CCOCC5)c5c4OCO5)cc3F)CC2)C1 [compound 101, (S)-2-((1H-pyrrolo[2,3-b]pyrid-5-yl)oxy)-5-fluoro-N-((7-(((4-fluorotetrahydro-2H-pyran-4-yl)methyl)amino)-6-nitrobenzo[d][1,3]dioxocyclopent-4-yl)sulfonyl)-4-(2-(2-(2-isopropylphenyl)pyrrolidin-1-yl)-7-azaspiro[3.5]non-7-yl)benzamide]"
10,< 10,"CC(C)c1ccccc1[C@@H]1CCCN1C1CC2(CCN(c3ccc(C(=O)NS(=O)(=O)c4cc([N+](=O)[O-])c(NCC5(F)CCOCC5)c5c4OCO5)c(Oc4cnc5[nH]ccc5c4)c3)CC2)C1 [compound 159, (S)-2-((1H-pyrrolo[2,3-b]pyrid-5-yl)oxy)-N-((7-(((4-fluorotetrahydro-2H-pyran-4-yl)methyl)amino)-6-nitrobenzo[d][1,3]dioxocyclopent-4-yl)sulfonyl)-4-(2-(2-(2-isopropylphenyl)pyrrolidin-1-yl)-7-azaspiro[3.5]non-7-yl)benzamide]"
11,< 10,"CC(C)c1ccccc1[C@@H]1CCCN1C1CC2(CCN(c3cc(Oc4cnc5[nH]ccc5c4)c(C(=O)NS(=O)(=O)c4cc([N+](=O)[O-])c(NC[C@H]5CC[C@](C)(O)CC5)c5c4OCO5)cc3F)CC2)C1 [compound 096, 2-((1H-pyrrolo[2,3-b]pyrid-5-yl)oxy)-5-fluoro-N-((7-((((1r, 4r)-4-hydroxy-4-methylcyclohexyl)methyl)amino)-6-nitrobenzo[d][1,3]dioxocyclopent-4-yl)sulfonyl)-4-(2-((S)-2-(2-isopropylphenyl)pyrrolidin-1-yl)-7-azaspiro[3.5]non-7-yl)benzamide]"
12,< 10,"CC(C)c1ccccc1[C@@H]1CCCN1C1CC2(CCN(c3ccc(C(=O)NS(=O)(=O)c4cc([N+](=O)[O-])c(NC[C@H]5COCCO5)c5c4OCO5)c(Oc4cnc5[nH]ccc5c4)c3)CC2)C1 [compound 161, N-((7-((((S)-1,4-dioxan-2-yl)methyl)amino)-6-nitrobenzo[d][1,3]dioxocyclopent-4-yl)sulfonyl)-2-((1H-pyrrolo[2,3-b]pyrid-5-yl)oxy)-4-(2-((S)-2-(2-isopropylphenyl)pyrrolidin-1-yl)-7-azaspiro[3.5]non-7-yl)benzamide]"
13,< 10,COc1ccc(CN2CCN(C3CC4(CCN(c5ccc(C(=O)NS(=O)(=O)c6cc([N+](=O)[O-])c(NCC7(F)CCN(C(C)C)CC7)c7[nH]cnc67)c(Oc6cnc7[nH]cc(F)c7c6)c5)CC4)C3)C(c3ccccc3C(C)C)C2)cc1 (centres unmarked) [compound 050]
14,< 10,"COc1cc(CN2CCN(C3CC4(CCN(c5ccc(C(=O)NS(=O)(=O)c6cc([N+](=O)[O-])c(NCC7(F)CCOCC7)c7c6OCO7)c(Oc6cnc7[nH]ccc7c6)c5)CC4)C3)[C@H](c3ccccc3C(C)C)C2)cc2cc(C)oc12 [compound 171, (R)-2-((1H-pyrrolo[2,3-b]pyrid-5-yl)oxy)-N-((7-(((4-fluorotetrahydro-2H-pyran-4-yl)methyl)amino)-6-nitrobenzo[d][1,3]dioxocyclopent-4-yl)sulfonyl)-4-(2-(2-(2-isopropylphenyl)-4-((7-methoxy-2-methylbenzofuran-5-yl)methyl)piperazin-1-yl)-7-azaspiro[3.5]non-7-yl)benzamide]"
15,< 10,"CC(C)c1ccccc1[C@@H]1CCCN1C1CC2(CCN(c3ccc(C(=O)NS(=O)(=O)c4cc([N+](=O)[O-])c(NCC5(F)CCN(C(C)C)CC5)c5[nH]cnc45)c(N4CCCOc5nc6[nH]ccc6cc54)c3)CC2)C1 [compound 086, (S)-2-(3,4-dihydro-2H-pyrrolo[3′,2′:5,6]pyridino[2,3-b][1,4]oxazacyclohept-1 (7H)-yl)-N-((7-(((4-fluoro-1-isopropylpiperid-4-yl)methyl)amino)-6-nitro-1H-benzo[d]imidazol-4-yl)sulfonyl)-4-(2-(2-(2-isopropylphenyl)pyrrolidin-1-yl)-7-azaspiro[3.5]non-7-yl)benzamide]"
16,< 10,"CC(C)c1ccccc1C1CN(C(C)C)CCN1C1CC2(CCN(c3ccc(C(=O)NS(=O)(=O)c4cc([N+](=O)[O-])c(NC[C@H]5CC[C@](C)(O)CC5)c5[nH]cnc45)c(Oc4cnc5[nH]ccc5c4)c3)CC2)C1 (some centres unmarked) [compound 041, 2-((1H-pyrrolo[2,3-b]pyrid-5-yl)oxy)-N-((7-((((1r,4r)-4-hydroxy-4-methylcyclohexyl)methyl)amino)-6-nitro-1H-benzo[d]imidazol-4-yl)sulfonyl)-4-(2-(4-isopropyl-2-(2-isopropylphenyl)piperazin-1-yl)-7-azaspiro[3.5]non-7-yl)benzamide]"
17,< 10,"CC(C)c1ccccc1C1CN(C2CCOCC2)CCN1C1CC2(CCN(c3cc(Oc4cnc5[nH]ccc5c4)c(C(=O)NS(=O)(=O)c4ccc(NC[C@H]5CC[C@](C)(O)CC5)c([N+](=O)[O-])c4)cn3)CC2)C1 (some centres unmarked) [compound 051, 4-((1H-pyrrolo[2,3-b]pyrid-5-yl)oxy)-N-((4-((((1r,4r)-4-hydroxy-4-methylcyclohexyl)methyl)amino)-3-nitrophenyl)sulfonyl)-6-(2-(2-(2-isopropylphenyl)-4-(tetrahydro-2H-pyran-4-yl)piperazin-1-yl)-7-azaspiro[3.5]non-7-yl) nicotinamide]"
